{"source": "patent US20160304861A1", "about": "“SPATIAL MULTIPLEXING FOR MULTISIGNAL CELLULAR IMAGING” (Massachusetts Institute of Technology, priority 2015, published 2016)", "tested_on": "Gcamp6f sensor cluster in HEK293 cells", "assay": "Gcamp6f sensor cluster response to ionomycin treatment in HEK293 cells", "assay_type": "cell-based", "conditions": "20 mM ionomycin in DMSO added at around 2 minutes, FIG. 1C", "method": "HEK cells were transfected with the TransIT®-293 transfection reagent (Minis). Cells were plated in a 24-well plate, transfected with 50 ng plasmids per well after 18-24 hours plating, and imaged 24 hours after transfection. Mouse neurons were transfected with the calcium phosphate transfection kit (Invitrogen). Neurons were plated in a 24-well plate, transfected 96 hours after plating with 1500 ng plasmids per well and were imaged at least 48 hours after transfection. For co-transfection in neurons, two plasmids were mixed as 1:1 ratio, maintaining a total of 1500 ng plasmids per well. For HEK experiments, NucBlue Life cell stain and ReadyProbes reagent (Life Technologies) were added to stain the nucleus. Mfn1-null MEF cells (ATCC® CRL-2992™) were plated in a 24-well glass-bottom plate with 50-70% cell confluency. Plasmids were then transfected with a mixture of 200 ng plasmid and […] Trans-IT X2 (Mirus) per well. Transfected cells were incubated at 37° C. for 48-72 hours to establish the expression.\nAn inverted epi-fluorescence Nikon Ti Eclipse equipped with SPECTRA X light engine (LumenCor), Zyla5.5 camera (Andor), 100× 1.45 NA oil objective lens (Nikon), 20× 0.75 NA objective lens (Nikon), and standard CFP-YFP FRET filter sets (Semrock) were used to image the fluorescent patterns. FRET imaging typically lasts for 10 min. […]"}
{"molecule": "C[C@H](CCC(=O)O)C[C@H](C)C[C@H](C)C(=O)/C=C(\\O)[C@H](C)C[C@H](C)C/C=C/[C@@H](C)[C@@H](O)[C@@H](C)[C@@H](O)C[C@@H]1CC[C@@](C)([C@H]2CC[C@@](C)([C@@H](C)O)O2)O1", "note": "[ionomycin]", "values": [{"measurement": "fluorescence by the Gcamp6f sensor cluster", "value": "incrase in fluorescence"}]}
